This note sets out measurements from patent publication US11208422B2, “Substituted bridged diazepane derivatives and use thereof as TASK-1 and TASK-3 inhibitors” (Bayer Pharma Aktiengesellschaft, priority 2017, dated 2021).

Test [1] has as its target recombinant TASK-3 (Homo sapiens (Human), UniProt Q9NPC2). Description: Inhibition of recombinant TASK-3 in stably transfected CHO cells (KCl-induced depolarization, voltage-sensitive dye, FLIPR). In kind it is cell-based. To be noted: depolarization induced by 40 mM potassium chloride, some mean values from multiple determinations. As to the method:
(§1) The compounds of the invention were tested here with administration of 40 mM of potassium chloride in the presence of a voltage-sensitive dye using the method described in detail in the following references [Whiteaker et al., Validation of FLIPR membrane potential dye for high-throughput screening of potassium channel modulators, J. Biomol. Screen. 6 (5), 305-312 (2001); Molecular Devices FLIPR Application Note: Measuring membrane potential using the FLIPR® membrane potential assay kit on Fluorometric Imaging Plate Reader (FLIPR®) systems, http://www.moleculardevices.com/reagents-supplies/assay-kits/ion-channels/flipr-membrane-potential-assay-kits]. The activity of the test substances was determined as their ability to inhibit a depolarization induced in the recombinant cells by 40 mM potassium chloride. The concentration which can block half of this depolarization is referred to as IC50.

Test [2] concerns the target recombinant TASK-1 (Homo sapiens (Human), UniProt O14649). Description: Inhibition of recombinant TASK-1 in stably transfected CHO cells (KCl-induced depolarization, voltage-sensitive dye, FLIPR). To be noted: depolarization induced by 40 mM potassium chloride, some mean values from multiple determinations. In kind it is cell-based. Here is the method: as §1

Chain of recombinant TASK-1 (O14649 whole entry): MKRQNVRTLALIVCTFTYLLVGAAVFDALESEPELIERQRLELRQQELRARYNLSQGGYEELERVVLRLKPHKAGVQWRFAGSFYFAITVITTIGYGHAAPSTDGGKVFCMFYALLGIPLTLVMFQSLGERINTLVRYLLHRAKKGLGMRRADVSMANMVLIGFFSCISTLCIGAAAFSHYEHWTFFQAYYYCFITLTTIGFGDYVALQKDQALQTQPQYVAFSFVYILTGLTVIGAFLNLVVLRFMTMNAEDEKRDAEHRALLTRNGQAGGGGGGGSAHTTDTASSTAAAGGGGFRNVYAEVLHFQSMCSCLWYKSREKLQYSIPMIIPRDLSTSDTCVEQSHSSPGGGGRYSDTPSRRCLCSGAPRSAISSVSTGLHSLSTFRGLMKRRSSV
Chain of recombinant TASK-3 (Q9NPC2 whole entry): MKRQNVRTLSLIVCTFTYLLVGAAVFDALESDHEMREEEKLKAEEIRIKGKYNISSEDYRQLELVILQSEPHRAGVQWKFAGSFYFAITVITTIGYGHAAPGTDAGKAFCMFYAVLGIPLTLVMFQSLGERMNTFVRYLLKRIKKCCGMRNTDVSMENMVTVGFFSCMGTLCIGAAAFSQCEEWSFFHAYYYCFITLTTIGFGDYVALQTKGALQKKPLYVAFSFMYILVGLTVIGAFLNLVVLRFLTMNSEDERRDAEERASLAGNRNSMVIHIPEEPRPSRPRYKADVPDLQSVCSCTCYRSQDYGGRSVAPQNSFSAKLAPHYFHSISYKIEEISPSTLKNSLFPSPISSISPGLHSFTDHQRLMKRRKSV

Consider `COc1ccc(Cl)c(C(=O)N2C3CCC2CN(Cc2c(-c4ccc(Cl)cc4)nc4ncccn24)CC3)n1` (racemic) [Example 99, (3-chloro-6-methoxypyridin-2-yl)(3-{[2-(4-chlorophenyl)imidazo[1,2-a]pyrimidin-3-yl]methyl}-3,9-diazabicyclo[4.2.1]non-9-yl)methanone], for which the IC50 (as a rule, the concentration that gives 50% inhibition) in test [1] came out at 34 nM; in test [2] it was 0.29 µM.

On to `Cc1nonc1C(=O)N1C2CCN(Cc3c(-c4ccc(Cl)cc4)nc4ccccn34)CC1COC2` (racemic) [Example 73, [3-{[2-(4-chlorophenyl)imidazo[1,2-a]pyridin-3-yl]methyl}-8-oxa-3,10-diazabicyclo[4.3.1]dec-10-yl](4-methyl-1,2,5-oxadiazol-3-yl)methanone], for which the IC50 in test [1] was found to be 5 nM; in test [2] it was 0.099 µM.

In the case of `COc1ccc(Cl)c(C(=O)N2CCC3CCC2CN3Cc2c(-c3ccc(Cl)cn3)nc3ccccn23)n1` (stereo not shown) [Example 20], the IC50 in test [1] came out at 197 nM; in test [2], 3.35 µM.

In the case of `COc1ccc(F)c(C(=O)N2CCC3CCC(C2)N3Cc2c(-c3ccc(C(C)C)cc3)nc3ncccn23)n1` (stereo not shown) [Example 53], the IC50 was found to be 380 nM in test [1] and 1.3 µM in test [2].

As to `O=C(c1ccccc1F)N1C2CCC1CN(Cc1c(-c3ccc(Cl)cc3)nc3ccccn13)CC2` (racemic) [Example 69, [3-{[2-(4-chlorophenyl)imidazo[1,2-a]pyridin-3-yl]methyl}-3,9-diazabicyclo[4.2.1]non-9-yl](2-fluorophenyl)methanone], the IC50 is 62 nM in test [1] and 1.4 µM in test [2].

With `COc1ccc(Cl)c(C(=O)N2CCC3CCC2CN3Cc2c(-c3ccc(Cl)cc3)nc3ccccn23)n1` (stereo not shown) [Example 28], the values for the IC50 in test [1] and in test [2] were 5.6 nM and 0.28 µM, respectively.

As for `O=C(c1cccc(OC(F)F)n1)N1CCC2CCC1CN2Cc1c(-c2ccc(Cl)cc2)nc2ncccn12` (stereo not shown) [Example 67], the IC50 in test [1] was 370 nM; in test [2], 3.4 µM.

Turning to `COc1cccc(C(=O)N2C3CCN(Cc4c(-c5ccc(Cl)cc5)nc5ccccn45)CC2COC3)n1` (racemic) [Example 72, [3-{[2-(4-chlorophenyl)imidazo[1,2-a]pyridin-3-yl]methyl}-8-oxa-3,10-diazabicyclo[4.3.1]dec-10-yl](6-methoxypyridin-2-yl)methanone], the IC50 in test [1] stood at 5.1 nM; in test [2] it was 0.12 µM.

Regarding `COc1ccc(F)c(C(=O)N2C3CCN(Cc4c(-c5ccc(Cl)cc5)nc5ccccn45)CC2COC3)n1` (racemic) [Example 92, [3-{[2-(4-chlorophenyl)imidazo[1,2-a]pyridin-3-yl]methyl}-8-oxa-3,10-diazabicyclo[4.3.1]dec-10-yl](3-fluoro-6-methoxypyridin-2-yl)methanone], the values for the half-maximal inhibitory concentration (IC50) in test [1] and in test [2] were 2.5 nM and 0.085 µM, respectively.

As to `COc1cccc(C(=O)N2C3CCC2CN(Cc2c(-c4ccc(Cl)cc4)nc4ccccn24)CC3)n1` (single isomer, unassigned) [Example 90, [3-{[2-(4-Chlorophenyl)imidazo[1,2-a]pyridin-3-yl]methyl}-3,9-diazabicyclo[4.2.1]non-9-yl](6-methoxypyridin-2-yl)methanone], the results for the 50% inhibitory concentration (IC50) in test [1] and in test [2] were 2.8 nM and 0.043 µM, respectively.

Consider `COc1ccc(Cl)c(C(=O)N2CCC3CCC2CN3Cc2c(-c3ccc(Cl)cc3)nc3ncccn23)n1` (stereo not shown) [Example 23], for which the half-maximal inhibitory concentration (IC50) in test [1] was found to be 24 nM; in test [2] it was 3 µM.

Take `COc1ccc(F)c(C(=O)N2C3CCC2CN(Cc2c(-c4ccc(C(C)C)cc4)nc4ncccn24)CC3)n1` (stereo not shown) [Example 102]: the IC50 is 36 nM in test [1] and 0.17 µM in test [2].

In the case of `COc1ccc(F)c(C(=O)N2C3CCC2CN(Cc2c(-c4ccc(Cl)cc4)nc4ccccn24)CC3)n1` (single isomer, unassigned) [Example 79, [3-{[2-(4-chlorophenyl)imidazo[1,2-a]pyridin-3-yl]methyl}-3,9-diazabicyclo[4.2.1]non-9-yl](3-fluoro-6-methoxypyridin-2-yl)methanone], the values for the IC50 in test [1] and in test [2] were 11 nM and 0.29 µM, respectively.

For `CC(C)c1ccc(-c2nc3ncccn3c2CN2C3CCC2CN(C(=O)C2CCCC2)CC3)cc1` (stereo not shown) [Example 62], the IC50 in test [1] stood at 1000 nM; in test [2], 8.4 µM.

On to `COc1ccc(F)c(C(=O)N2CC3CCC2CN(Cc2c(-c4ccc(Cl)cc4)nc4ccccn24)C3)n1` (single isomer, unassigned) [Example 94, [3-{[2-(4-chlorophenyl)imidazo[1,2-a]pyridin-3-yl]methyl}-3,6-diazabicyclo[3.2.2]non-6-yl](3-fluoro-6-methoxypyridin-2-yl)methanone], for which the values for the 50% inhibitory concentration (IC50) in test [1] and in test [2] were 110 nM and 3.2 µM, respectively.

On to `COc1ccc(F)c(C(=O)N2CCC3CCC2CN3Cc2c(-c3ccc(Cl)cc3)nc3ccccn23)n1` (stereo not shown) [Example 27], for which the IC50 in test [1] stood at 3 nM; in test [2], 0.15 µM.

Take `COc1cccc(C(=O)N2CCC3CCC(C2)N3Cc2c(-c3ccc(C(C)C)cc3)nc3ncccn23)n1` (stereo not shown) [Example 55]: the IC50 stood at 1000 nM in test [1] and 4 µM in test [2].

On to `COc1cccc(C(=O)N2C3CCC2CN(Cc2c(-c4ccc(Cl)cn4)nc4ccccn24)CC3)n1` (single isomer, unassigned) [Example 85, [3-{[2-(5-chloropyridin-2-yl)imidazo[1,2-a]pyridin-3-yl]methyl}-3,9-diazabicyclo[4.2.1]non-9-yl](6-methoxypyridin-2-yl)methanone], for which the values for the IC50 in test [1] and in test [2] were 370 nM and 6.3 µM, respectively.

With `COc1cccc(C(=O)N2CC3CCC2CN(Cc2c(-c4ccc(Cl)cc4)nc4ccccn24)C3)n1` (single isomer, unassigned) [Example 95, [3-{[2-(4-chlorophenyl)imidazo[1,2-a]pyridin-3-yl]methyl}-3,6-diazabicyclo[3.2.2]non-6-yl](6-methoxypyridin-2-yl)methanone], the IC50 amounted to 710 nM in test [1] and 4.9 µM in test [2].

Regarding `COc1cccc(C(=O)N2CCC3CCC2CN3Cc2c(-c3ccc(Cl)cc3)nc3ccccn23)n1` (stereo not shown) [Example 26], the values for the IC50 in test [1] and in test [2] were 6.9 nM and 0.83 µM, respectively.

For `Nc1nonc1C(=O)N1CCC2CCC1CN2Cc1c(-c2ccc(Cl)cc2)nc2ncccn12` (stereo not shown) [Example 24], the results for the IC50 in test [1] and in test [2] were 24 nM and 3.1 µM, respectively.

Take `COc1ccc(Cl)c(C(=O)N2C3CCC2CN(Cc2c(-c4ccc(Cl)cn4)nc4ccccn24)CC3)n1` (racemic) [Example 100, (3-chloro-6-methoxypyridin-2-yl)(3-{[2-(5-chloropyridin-2-yl)imidazo[1,2-a]pyridin-3-yl]methyl}-3,9-diazabicyclo[4.2.1]non-9-yl)methanone]: the IC50 worked out at 42 nM in test [1] and 0.37 µM in test [2].

Turning to `CC(C)c1ccc(-c2nc3ncccn3c2CN2C3CCC2CN(C(=O)C2CCCC2)CC3)cc1` (stereo not shown) [Example 57], the values for the IC50 in test [1] and in test [2] were 2000 nM and 6.2 µM, respectively.

Consider `COc1cccc(C(=O)N2CCC3CCC2CN3Cc2c(-c3ccc(Cl)cc3)nc3ncccn23)n1` (stereo not shown) [Example 32], for which the IC50 in test [1] was determined as 4.1 nM; in test [2], 0.13 µM.

As to `COc1ccc(F)c(C(=O)N2CCC3CCC2CN3Cc2c(-c3ccc(Cl)cn3)nc3ccccn23)n1` (stereo not shown) [Example 19], the IC50 in test [1] came out at 580 nM; in test [2], 13.5 µM.

Turning to `O=C(c1ccccc1F)N1CCC2CCC1CN2Cc1c(-c2ccc(Cl)cc2)nc2ncccn12` (stereo not shown) [Example 22], the results for the IC50 in test [1] and in test [2] were 370 nM and 27 µM, respectively.

As for `CC(C)c1ccc(-c2nc3ncccn3c2CN2C3CCC2CN(C(=O)c2ccccc2F)CC3)cc1` (stereo not shown) [Example 63], the IC50 in test [1] turned out to be 800 nM; in test [2], 8.4 µM.

Take `COc1cccc(C(=O)N2CCC3CCC2CN3Cc2c(-c3ccc(Cl)cc3)nc3ncccn23)n1` (stereo not shown) [Example 21]: the IC50 in test [1] was 140 nM; in test [2] it was 18 µM.

Regarding `Nc1nonc1C(=O)N1CCC2CCC1CN2Cc1c(-c2ccc(Cl)cc2)nc2ncccn12` (stereo not shown) [Example 35], the concentration for half-maximal inhibition (IC50) in test [1] came to 500 nM; in test [2], 24 µM.

Turning to `CC(C)c1ccc(-c2nc3ncccn3c2CN2C3CCC2CN(C(=O)c2ccccc2F)CC3)cc1` (stereo not shown) [Example 64], the IC50 amounted to 1800 nM in test [1] and 7.2 µM in test [2].

With `Nc1nonc1C(=O)N1CCC2CCC1CN2Cc1c(-c2ccc(Cl)cc2)nc2ccccn12` (stereo not shown) [Example 40], the IC50 is 29 nM in test [1] and 3.3 µM in test [2].

For `COc1cccc(C(=O)N2C3CCC2CN(Cc2c(-c4ccc(Cl)cc4)nc4ncccn24)CC3)n1` (single isomer, unassigned) [Example 87, [3-{[2-(4-chlorophenyl)imidazo[1,2-a]pyrimidin-3-yl]methyl}-3,9-diazabicyclo[4.2.1]non-9-yl](6-methoxypyridin-2-yl)methanone], the values for the IC50 in test [1] and in test [2] were 210 nM and 1.6 µM, respectively.

For `Nc1nonc1C(=O)N1C2CCN(Cc3c(-c4ccc(Cl)cc4)nc4ncccn34)CC1COC2` (racemic) [Example 77, (4-amino-1,2,5-oxadiazo1-3-yl)[3-{[2-(4-chlorophenyl)imidazo[1,2-a]pyrimidin-3-yl]methyl}-8-oxa-3,10-diazabicyclo[4.3.1]dec-10-yl]methanone], the IC50 in test [1] was 270 nM; in test [2] it was 3.3 µM.

For `CC(C)c1ccc(-c2nc3ncccn3c2CN2CC3CCC2CCN3C(=O)c2ccccc2F)cc1` (stereo not shown) [Example 46], the values for the IC50 in test [1] and in test [2] were 1000 nM and 16 µM, respectively.

For the molecule `COc1cccc(C(=O)N2CCC3CCC(C2)N3Cc2c(-c3ccc(C(C)C)cc3)nc3ncccn23)n1` (stereo not shown) [Example 60], the IC50 in test [1] was 1000 nM; in test [2], 5.2 µM.
